Laboratory results published in patent publication US11529341B2, “Bicyclic compounds as inhibitors of PD1/PD-L1 interaction/activation” (JUBILANT PRODEL LLC, priority 2018, dated 2022).

target: T1, PD-1/PD-L1 interaction (Homo sapiens, UniProt Q9NZQ7); assay: PD-1/PD-L1 Homogenous Time-Resolved Fluorescence (HTRF) binding assay (CisBio kit); settings: Biochemical PD1/PD-L1 inhibition
T1 construct: Tag1 (undisclosed kit tag); purchased CisBio 63ADK000CPAPEG
Method: PD-L1 Enzyme Assay: Homogenous Time-Resolved Fluorescence (HTRF) Binding Assay
All binding studies were performed using PD-1/PD-L1 Binding Assay Kit from CisBio (Catalog #63ADK000CPAPEG), according to the manufacturer's protocol. The interaction between Tag1-PD-1 and […] was detected by anti-Tag1-Eu^3+ (HTRF donor) and anti-Tag2-XL665 (HTRF acceptor). When the donor and acceptor antibodies were brought to close proximity due to PD-1 and PD-L1 binding, excitation of the donor antibody triggered fluorescent resonance energy transfer (FRET) towards the acceptor antibody, which in turn emitted specifically at 665 nm. This specific signal is positively proportional to PD-1/PD-L1 interaction. The compounds blocking PD-1/PD-L1 interaction will cause a reduction in HTRF signal. The necessary reagents were mixed in the following order: 2 μl compounds (or diluents buffer), 4 μl PD-L1 protein, 4 μl PD-1 protein. After an incubation of 15 minutes, 5 μl of anti-Tag1-Eu^3+ and 5 μl of anti-Tag2-XL665 were added. The plate was sealed and incubated at room temperature for 1 h. The fluorescence emission was read at two different wavelengths (665 nm and 620 nm) on a BMG PheraStar® multi-plate reader. Results were calculated from the 665 nm and 620 nm fluorescence signal and expressed in HTRF ratio=(665 nm/620 nm)×10^4.

T1 sequence (Q9NZQ7 19-238 limits assumed): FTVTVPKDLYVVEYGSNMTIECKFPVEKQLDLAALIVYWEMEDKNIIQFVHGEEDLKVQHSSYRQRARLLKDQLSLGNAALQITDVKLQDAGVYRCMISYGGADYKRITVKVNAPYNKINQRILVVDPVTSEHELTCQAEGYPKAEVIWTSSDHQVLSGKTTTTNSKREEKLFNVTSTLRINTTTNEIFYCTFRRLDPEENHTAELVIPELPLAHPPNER

IC50 | SMILES
> 500 nM | CC(=O)NCc1c(OCc2cccc(C#N)c2)cc(OCc2cccc(-c3ccccc3)c2C)c2c1CCC2 [Compound 90, N-((5-((3-cyanobenzyl)oxy)-7-((2-methyl-[1,1′-biphenyl]-3-yl)methoxy)-2,3-dihydro-1H-inden-4-yl)methyl)acetamide]
< 100 nM | Cc1c(COc2cc(OCc3cncc(C#N)c3)c(CNC(CO)(CO)CO)c3c2CCC3)cccc1-c1ccccc1 [Compound 49, 5-(((4-(((1,3-dihydroxy-2-(hydroxymethyl)propan-2-yl)amino)methyl)-7-((2-methyl-[1,1′-biphenyl]-3-yl)methoxy)-2,3-dihydro-1H-inden-5-yl)oxy)methyl)nicotinonitrile]
100 to 500 nM | Cc1c(COc2cc(OCc3cccc(C(N)=O)c3)c(CN3CCCC[C@H]3C(=O)O)c3c2CCC3)cccc1-c1ccccc1 [Compound 88, (S)-1-((5-((3-carbamoylbenzyl)oxy)-7-((2-methyl-[1,1′-biphenyl]-3-yl)methoxy)-2,3-dihydro-1H-inden-4-yl)methyl)piperidine-2-carboxylic acid]
> 500 nM | Cc1c(COc2ccc(CN3CC4(COC4)C3)c3c2CCC3)cccc1-c1ccccc1 [Compound 17, 6-((7-((2-methyl-[1,1′-biphenyl]-3-yl)methoxy)-2,3-dihydro-1H-inden-4-yl)methyl)-2-oxa-6-azaspiro[3.3]heptane]
< 100 nM | N#Cc1cncc(COc2cc(OCc3cccc(-c4ccccc4)c3C#N)c3c(c2CN2C[C@H](O)C[C@H]2C(=O)O)CCC3)c1 [Compound 70, (2S,4R)-1-((7-((2-cyano-[1,1′-biphenyl]-3-yl)methoxy)-5-((5-cyanopyridin-3-yl)methoxy)-2,3-dihydro-1H-inden-4-yl)methyl)-4-hydroxypyrrolidine-2-carboxylic acid]
< 100 nM | Cc1c(COc2cc(OCc3cccc(C#N)c3)c(CNC(CO)(CO)CO)c3c2CCC3)cccc1-c1ccccc1 [Compound 38, 3-(((4-(((1,3-dihydroxy-2-(hydroxymethyl)propan-2-yl)amino)methyl)-7-((2-methyl-[1,1′-biphenyl]-3-yl)methoxy)-2,3-dihydro-1H-inden-5-yl)oxy)methyl)benzonitrile]
100 to 500 nM | Cc1c(COc2ccc(CN(C)CC(=O)O)c3c2CCC3)cccc1-c1ccccc1 [Compound 22, N-methyl-N-((7-((2-methyl-[1,1′-biphenyl]-3-yl)methoxy)-2,3-dihydro-1H-inden-4-yl)methyl)glycine]
< 100 nM | Cc1c(COc2cc(OCc3cccc(C#N)c3)c(CN(C)C)c3c2CCC3)cccc1-c1ccccc1 [Compound 92, 3-(((4-((dimethylamino)methyl)-7-((2-methyl-[1,1′-biphenyl]-3-yl)methoxy)-2,3-dihydro-1H-inden-5-yl)oxy)methyl)benzonitrile]
< 100 nM | Cc1c(COc2cc(OCc3cncc(C#N)c3)c(CN3CCOC[C@H]3C(=O)O)c3c2CCC3)cccc1-c1ccccc1 [Compound 50, (S)-4-((5-((5-cyanopyridin-3-yl)methoxy)-7-((2-methyl-[1,1′-biphenyl]-3-yl)methoxy)-2,3-dihydro-1H-inden-4-yl)methyl)morpholine-3-carboxylicacid]
< 100 nM | CC(=O)NCCNCc1c(OCCCCC(=O)O)cc(OCc2cccc(-c3ccccc3)c2C)c2c1CCC2 [Compound 65, 5-((4-(((2-acetamidoethyl)amino)methyl)-7-((2-methyl-[1,1′-biphenyl]-3-yl)methoxy)-2,3-dihydro-1H-inden-5-yl)oxy)pentanoic acid]
< 100 nM | Cc1c(COc2cc(OCc3cccc(C#N)c3)c(CNC34CCC(C(=O)O)(CC3)CC4)c3c2CCC3)cccc1-c1ccccc1 [Compound 74, 4-(((5-((3-cyanobenzyl)oxy)-7-((2-methyl-[1,1′-biphenyl]-3-yl)methoxy)-2,3-dihydro-1H-inden-4-yl)methyl)amino)bicyclo[2.2.2]octane-1-carboxylic acid]
100 to 500 nM | CC(=O)NCCNCc1c(OCc2cccc(C#N)c2)cc(OCc2cccc(-c3ccc(F)cc3)c2C)c2c1CCC2 [Compound 87, N-(2-(((5-((3-cyanobenzyl)oxy)-7-((4′-fluoro-2-methyl-[1,1′-biphenyl]-3-yl)methoxy)-2,3-dihydro-1H-inden-4-yl)methyl)amino)ethyl)acetamide]
> 500 nM | CC(=O)NCCNCc1cc(C)c(OCc2cccc(-c3ccccc3)c2C)c2c1CCC2 [Compound 28, N-(2-(((6-methyl-7-((2-methyl-[1,1′-biphenyl]-3-yl)methoxy)-2,3-dihydro-1H-inden-4-yl)methyl)amino)ethyl)acetamide]
> 500 nM | COC(=O)c1cc(CNCCNC(C)=O)c2c(c1OCc1cccc(-c3ccccc3)c1C)CCC2 [Compound 6, Methyl 7-(((2-acetamidoethyl)amino)methyl)-4-((2-methyl-[1,1′-biphenyl]-3-yl)methoxy)-2,3-dihydro-1H-indene-5-carboxylate]
100 to 500 nM | COc1cc(OCc2cccc(-c3ccccc3)c2C)c2c(c1CN1CCCC[C@H]1C(=O)O)CCC2 [Compound 26, (S)-1-((5-methoxy-7-((2-methyl-[1,1′-biphenyl]-3-yl)methoxy)-2,3-dihydro-1H-inden-4-yl)methyl)piperidine-2-carboxylic acid]
< 100 nM | COc1cc(OCc2cccc(-c3ccccc3)c2C#N)c2c(c1CNCC(=O)O)CCC2 [Compound 60, ((7-((2-cyano-[1,1′-biphenyl]-3-yl)methoxy)-5-methoxy-2,3-dihydro-1H-inden-4-yl)methyl)glycine]
100 to 500 nM | Cc1c(COc2c(Cl)cc(CN3CCCC[C@H]3C(=O)O)c3c2CCC3)cccc1-c1ccccc1 [Compound 5, (S)-1-((6-chloro-7-((2-methyl-[1,1′-biphenyl]-3-yl)methoxy)-2,3-dihydro-1H-inden-4-yl)methyl)piperidine-2-carboxylic acid]
100 to 500 nM | CC(=O)NCCNCc1c(OCc2ccc(C#N)cc2)cc(OCc2cccc(-c3ccccc3)c2C)c2c1CCC2 [Compound 54, N-(2-(((5-((4-cyanobenzyl)oxy)-7-((2-methyl-[1,1′-biphenyl]-3-yl)methoxy)-2,3-dihydro-1H-inden-4-yl)methyl)amino)ethyl)acetamide]
< 100 nM | COc1cc(OCc2cccc(-c3ccccc3)c2C#N)c2c(c1CN1CC3(CC3)C[C@H]1C(=O)O)CCC2 [Compound 61, (S)-5-((7-((2-cyano-[1,1′-biphenyl]-3-yl)methoxy)-5-methoxy-2,3-dihydro-1H-inden-4-yl)methyl)-5-azaspiro[2.4]heptane-6-carboxylic acid]
< 100 nM | Cc1c(COc2cc(OCc3cccc(C#N)c3)c(CNCC(=O)O)c3c2CCC3)cccc1-c1ccccc1 [Compound 41, ((5-((3-cyanobenzyl)oxy)-7-((2-methyl-[1,1′-biphenyl]-3-yl)methoxy)-2,3-dihydro-1H-inden-4-yl)methyl)glycine]
< 100 nM | CC(=O)NCCNCc1c(OCc2cncc(C#N)c2)cc(OCc2cccc(-c3ccccc3)c2C)c2c1CCC2 [Compound 48, N-(2-(((5-((5-cyanopyridin-3-yl)methoxy)-7-((2-methyl-[1,1′-biphenyl]-3-yl)methoxy)-2,3-dihydro-1H-inden-4-yl)methyl)amino)ethyl)acetamide]
> 500 nM | Cc1c(COc2ccc(CNC(C)C(=O)O)c3c2CCC3)cccc1-c1ccccc1 (stereo not drawn) [Compound 24, ((7-((2-methyl-[1,1′-biphenyl]-3-yl)methoxy)-2,3-dihydro-1H-inden-4-yl)methyl)alanine]
< 100 nM | COc1cc(OCc2cccc(-c3ccc4c(c3)OCCO4)c2C)c2c(c1CN1CCCC[C@H]1C(=O)O)CCC2 [Compound 84, (S)-1-((7-((3-(2,3-dihydrobenzo[b][1,4]dioxin-6-yl)-2-methylbenzyl)oxy)-5-methoxy-2,3-dihydro-1H-inden-4-yl)methyl)piperidine-2-carboxylic acid]
100 to 500 nM | Cc1cc(CN2CCCC[C@H]2C(=O)O)c2c(c1OCc1cccc(-c3ccccc3)c1C)CCC2 [Compound 4, (S)-1-((6-methyl-7-((2-methyl-[1,1′-biphenyl]-3-yl)methoxy)-2,3-dihydro-1H-inden-4-yl)methyl)piperidine-2-carboxylic acid]

SMILES | IC50
Cc1c(COc2cc(OCCCCC#N)c(CN3CCCC[C@H]3C(N)=O)c3c2CCC3)cccc1-c1ccccc1 [Compound 80, (S)-1-((5-(4-cyanobutoxy)-7-((2-methyl-[1,1′-biphenyl]-3-yl)methoxy)-2,3-dihydro-1H-inden-4-yl)methyl)piperidine-2-carboxamide] | > 500 nM
CC(=O)NCCNCc1c(OCCCCC#N)cc(OCc2cccc(-c3ccccc3)c2C)c2c1CCC2 [Compound 79, N-(2-(((5-(4-cyanobutoxy)-7-((2-methyl-[1,1′-biphenyl]-3-yl)methoxy)-2,3-dihydro-1H-inden-4-yl)methyl)amino)ethyl)acetamide] | < 100 nM
Cc1c(COc2cc(OCCCCC#N)c(CN3C[C@H](O)C[C@H]3C(=O)O)c3c2CCC3)cccc1-c1ccccc1 [Compound 81, (2S,4R)-1-((5-(4-cyanobutoxy)-7-((2-methyl-[1,1′-biphenyl]-3-yl)methoxy)-2,3-dihydro-1H-inden-4-yl)methyl)-4-hydroxypyrrolidine-2-carboxylic acid] | < 100 nM
